Tests used:
[1] = tested on: Pancreatic cells (BxPC-3); experiment: phospho-gamma H2AX immunofluorescence assay of DNA damage after 18 MV X-ray irradiation generating Cherenkov light; type: cell-based; conditions: BxPC-3 cells, 4 micrograms per ml, 6 h incubation, 10 Gy X-ray, read 30 minutes after irradiation, +/- 1 standard deviation
Procedure: Following preparation of the nuclear-targeted copolymer-photosensitizer micelles (NPs) as above, tests were carried out of the effect on pancreatic cancer cells in tissue culture (in vitro) of X-ray irradiation under conditions that generate Cherenkov light. Pancreatic cells (BxPC-3: ATCC, VA, USA) were selected since treatment of pancreatic cancer is one example of how the current invention might be applied to address an unmet clinical need for a minimally invasive therapy for this highly fatal disease where conventional treatments such as radiation or chemotherapy are inadequate.
Cells were incubated with NPs with water as the vehicle. […]
At 30 minutes after irradiation, the damage to DNA in the cells was measured using phospho-gamma H2AX immunofluorescence assay, similar to that used for example by Fraser et al. (2012). […] The fluorescence was imaged on a confocal fluorescence microscope where the red fluorescence (488+/−10 nm excitation, >505 nm detection) corresponding to DNA double strand breaks could be visualized on the […] DAPI fluorescence background (405+/−10 nm excitation, 460+/−25 nm detection) and the intensity quantified. The red fluorescence intensity counts were integrated over 10-18 cells for each treatment condition. […]

[2] = tested on: cells in vitro; conditions: conjugation to branched peptides (loligomers) with nuclear-targeting sequences; cited from earlier work

Molecule | Mean fluorescence intensity counts ([1]; Cherenkov blocked (blackout material)) | Mean fluorescence intensity counts ([1]; Cherenkov unblocked) | reduction of the required dose of photosensitizer by nuclear localization [2]
C1=Cc2nc1c(-c1ccccc1)c1nc(c(-c3ccccc3)c3ccc([nH]3)c(-c3ccccc3)c3ccc([nH]3)c2-c2ccccc2)C=C1 [TPP, tetraphenyl porphyrin] | 54.8 +/− 6.0 counts | 49.5 +/− 6.7 counts | –
chlorine 6 | – | – | greater than 100 fold

Source: patent US11607454B2, “Devices and processes for Cherenkov-activated nuclear-targeted photodynamic therapy” (UNIVERSITY HEALTH NETWORK, priority 2016, dated 2023)
